“Also recorded” adds a separate entry of the source. Residues, ends and D or L forms follow the SMILES beside them.
What was measured:
[1] = test system: bovine aortic endothelial cells (BAEC); experiment: Microfilament and cell surface area measurement in cultured endothelial cells (rhodamine-phalloidin fluorescence microscopy); type: cell-based
Source text: Bovine abdominal aortas were clamped and tied in-situ and dissected free of the supporting adventitia. Aortas were transported from the abbatoir on ice. Endothelial cells were harvested by gentle ablation of the endothelium following the technique of Shepro et al. [Anat. Rec. 178:523 (1974)]; digested with 0.1% collagenase; and then pelleted and seeded onto 100 mm diameter tissue culture dishes using conventional techniques. The cell medium consisted of DULBECCO'S MODIFIED EAGLES'S MEDIUM medium (hereinafter "DME") at pH 7.4 supplemented with 10% fetal calf serum (hereinafter "FCS"), 0.1% of penicillin, 0.7% streptomycin, 0.1% amphotericin, and 0.1% glutamine. The cell media was replaced every 3 days. The cells were incubated at 37° C. in a 10% carbon dioxide, 90% ambient atmosphere (100% humidified).
This amount of confluency permits excellent visualization of cell spreading and stressed fibers. Individual confluent layers of cells were then treated with 1 uM Phallin A for 30 minutes duration; then fixed in 3.7% phosphate-buffered formaldehyde (pH 7.4) for 15 minutes. The cells on each coverslip were then permeabilized in extraction buffer (composed of 0.5M KCl, 1% triton X-100, 10 mM MgCl2, and 1 mg/ml tosyl-arginine methyl ester (hereinafter "TAME"); 17 ug/ml toluene-sulfonyl fluoride (hereinafter "TSF"); and 0.25 mg/ml DNAse 1 in PBS for a period of 10 minutes. Subsequently, this extraction buffer was removed and the cells washed three times in sequence with PBS. The cells were then stained with Rhodamine-phalloidin (an F-active specific fluorescent probe, Molecular Probes, Inc., Junction City, Oreg.) at 1 unit/200 ul per coverslip for 39 minutes duration. Subsequently, the coverslips were washed five times consecutively in PBS; mounted in a 1:1 ratio mixture of PBS/glycerol; and sealed. The cultured cells on each coverslip were illuminated for fluorescence microscopy. […] For comparative purposes, 1.0 uM of phalloidin (also known as Phallin B) or a mixture of Phallin A and Phhallin B, and PBS alone as the control was similarly evaluated. […] Clearly, the use of Phallin A at concentrations of 10^-6 to 10^-7 M is non-toxic to the cultured endothelial cells.

[2] = test system: bovine aortic endothelial cells (BAEC); experiment: Permeability assay: TBA (trypan blue-albumin) uptake by BAEC-covered microcarrier beads; type: cell-based; conditions: 1 uM, 30 minutes, versus untreated controls and mixture of phalloidin and Phallin A, FIG. 2
Protocol: Bovine aortic endothelial cells (BAEC) were prepared, cultured, and harvested as described within Experiment 1. Subsequently, BAEC were subcultured a maximum of three times before seeding onto CYTODEX 3 microcarrier beads (Pharmacia, Inc. ) . Microcarrier beads were suspended in cell media at a concentration of 40,000 microcarriers per milliliter. Beads were suspended by stirring, using a magnetic stirrer. BAEC were seeded onto the beads at the minimum density of 15 cells per bead and allowed to reach confluency. Subsequently, BAEC covered beads were allowed to incubate for 6 days post-confluency to obtain near maximum barrier function of the cell monolayers on the beads. After this incubation period, the BAEC covered beads were ready for use within permeability experiments. […]
BAEC barrier function was measured by TBA uptake per bead; therefore, it is necessary to standardize the number of beads per milliliter. […] Standard curves for absorbance as a function of bead concentration provides a linear relationship as a basis for comparison and extrapolation. […]
BAEC barrier function was then assessed in the following manner: 3.0 ml of BAEC-covered microcarrier beads at a density of 40,000 beads per milliliter were aliquotted into a 4.5 ml test vial in duplicate. […]
This assay procedure uses colorimetry to measure TBA dye absorbance by the beads. […]

[3] = cited from earlier work
[4] = test system: endothelial actin cytoskeleton; conditions: cited from earlier work
[5] = test system: endothelial cell; conditions: physiological titers and concentrations; cited from earlier work
[6] = test system: endothelial cells; conditions: cited from earlier work

CC(C)[C@@H]1NC(=O)[C@H](Cc2ccccc2)NC(=O)[C@H](Cc2ccccc2)NC(=O)[C@@H]2CCCN2C(=O)[C@@H]2CCCN2C(=O)[C@H](Cc2ccccc2)NC(=O)[C@H](Cc2ccccc2)NC(=O)[C@H](C)NC(=O)[C@@H]2CCCN2C(=O)[C@@H]2CCCN2C1=O [Phallin A, antamanide] (cyclo(AFFPPFFVPP))
cell surface area and cell perimeter ([1]; BAEC at 50% confluency, 1 uM, 30 minutes): increased surface area and cell perimeter
cell proliferation ([1]; BAEC, 1.0 uM, FIG. 1): do not alter in proliferation
ratio of cell perimeter to cell area (roundness) ([1]; BAEC, 1.0 uM, FIG. 1): diminishes
cell shape (flattening and border extension) ([1]; BAEC, 1.0 uM, FIG. 1, comparable to other agents and controls): substantial flattening and border extension
toxicity to cultured endothelial cells ([1]; concentrations of 10^-6 to 10^-7 M): non-toxic
endothelial cell barrier function / resistance to permeability (TBA uptake) [2]: markedly increases cell barrier function
protection of the liver ([3]; administered in therapeutic doses): protecting the liver completely
annulling toxic effects of fatal doses of phalloidin ([3]; in vivo): capable of annulling the toxic effects of fetal doses of phalloidin; also recorded: capable at very low dosage of counteracting the effects of an absolutely fatal dose of phalloidin

C=C1[C@@H](C)[C@H]2[C@H](Cc3ccccc3)NC(=O)[C@]23OC(=O)/C=C/[C@H](O)CCC[C@@H](C)C/C=C/[C@H]3[C@@H]1O [cytochalasin B]
permeability for plasma proteins after disruption of endothelial actin cytoskeleton [4]: increase in permeability for plasma proteins

NCCc1c[nH]cn1 [histamine]
endothelial cell movement [5]: inhibit endothelial cell movement
stress fibers within endothelial cells [6]: produces stress fiber disassembly

NC[C@H](O)c1ccc(O)c(O)c1 [norepinephrine]
endothelial cell movement [5]: inhibit endothelial cell movement
stress fibers within endothelial cells [6]: stimulate the assembly of stress fibers

NCCc1c[nH]c2ccc(O)cc12 [serotonin]
endothelial cell movement [5]: inhibit endothelial cell movement
stress fibers within endothelial cells [6]: stimulate the assembly of stress fibers

From patent publication US5466667A, “Prophylactic and therapeutic methods for treating edema with antamanides” (priority 1993, dated 1995)
